Values of other authors as cited in patent publication US11224646B2, “Intranasal delivery of a cyclic-di-nucleotide adjuvanted vaccine for tuberculosis” (priority 2018, dated 2022).

Assays:
murine STING = target: T1, murine STING (Mus musculus, UniProt Q3TBT3)
T1 sequence (Q3TBT3 1-378): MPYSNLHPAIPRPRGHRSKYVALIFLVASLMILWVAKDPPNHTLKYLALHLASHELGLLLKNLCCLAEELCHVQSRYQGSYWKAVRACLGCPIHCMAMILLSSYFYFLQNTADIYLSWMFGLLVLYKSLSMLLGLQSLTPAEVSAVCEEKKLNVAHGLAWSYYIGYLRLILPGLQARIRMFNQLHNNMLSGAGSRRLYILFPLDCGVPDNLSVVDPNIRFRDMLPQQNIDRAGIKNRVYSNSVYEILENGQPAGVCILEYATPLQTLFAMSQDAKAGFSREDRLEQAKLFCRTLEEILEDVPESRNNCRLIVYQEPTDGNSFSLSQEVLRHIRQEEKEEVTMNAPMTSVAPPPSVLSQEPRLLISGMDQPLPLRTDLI

[1] = tested on: five common human STING alleles

Row | SMILES | hydrolysis by phosphodiesterases (phosphodiesterases) | activation of murine STING (murine STING) | engagement / activation of the five common human STING alleles [1]
1 | Nc1nc2c(ncn2[C@@H]2O[C@@H]3COP(=O)(S)O[C@H]4[C@@H](O)[C@H](n5cnc6c(N)ncnc65)O[C@@H]4CO[P@@](=O)(S)O[C@@H]2[C@@H]3O)c(=O)[nH]1 (stereo partly drawn) [ML-RR-cGAMP, dithio-[RP, RP]-cyclic-[G(2′,5′)pA(3′,5′)p]] | resistant to hydrolysis by phosphodiesterases |  | 
2 | Nc1nc2c(ncn2[C@@H]2O[C@@H]3CO[P@@](=O)(S)O[C@H]4[C@@H](O)[C@H](n5cnc6c(=O)[nH]c(N)nc65)O[C@@H]4CO[P@@](=O)(S)O[C@H]3[C@H]2O)c(=O)[nH]1 [RR-CDG, dithio-[RP, RP]-cyclic-[G(3′,5′)pG(3′,5′)p]] |  | efficiently activates murine STING | does not engage all five common STING alleles
